Measurements: patent publication US20080255206A1, “Rxr Agonists and Antagonists, Alone or in Combination with Ppar Ligands, in the Treatment of Metabolic and Cardiovascular Diseases” (priority 2005, published 2008)

Legend:
RARγ [1] = target: T1, RARγ (Homo sapiens, UniProt P13631); experiment: Retinoid binding assay, RARγ; details: read-out: Binding Affinity IC50 RAR γ
T1 construct: The DEF domains of RAR's and the full length RXR's, expressed in E.coli; made in house; host or cells: E. coli
T1 sequence (P13631 185-419 limits assumed): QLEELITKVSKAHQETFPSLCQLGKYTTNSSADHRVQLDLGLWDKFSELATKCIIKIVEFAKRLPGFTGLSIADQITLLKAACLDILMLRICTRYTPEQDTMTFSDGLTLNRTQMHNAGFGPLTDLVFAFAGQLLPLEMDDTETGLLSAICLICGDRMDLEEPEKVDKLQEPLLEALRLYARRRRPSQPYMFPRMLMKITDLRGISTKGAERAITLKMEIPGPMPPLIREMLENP
From the text: (§1) The DEF domains of RAR's and the full length RXR's, expressed in E.coli, are used to measure competitive retinoid binding. […] 9-cis retinoic acid (for RXR's), respectively. […] Separation of bound from free radioactivity is achieved by charcoal/dextran (RAR's) or by desalting columns (RXR's). […] Retinoid Activation Assays

RARα [2] = target: T2, RARα (Homo sapiens, UniProt P10276); experiment: Retinoid binding assay, RARα; set-up: The DEF domains of RAR's and the full length RXR's, expressed in E.coli; made in house; host or cells: E. coli; details: read-out: Binding Affinity IC50 RAR α
T2 sequence (P10276 183-417 limits assumed): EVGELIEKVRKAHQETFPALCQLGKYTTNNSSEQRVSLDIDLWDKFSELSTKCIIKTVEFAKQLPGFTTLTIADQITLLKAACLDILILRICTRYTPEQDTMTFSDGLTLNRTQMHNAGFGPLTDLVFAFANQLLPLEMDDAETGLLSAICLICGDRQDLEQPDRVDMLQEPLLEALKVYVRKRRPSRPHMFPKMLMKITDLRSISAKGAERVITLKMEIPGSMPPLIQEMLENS
From the text: as §1

RARβ [3] = target: T3, RARβ (Homo sapiens, UniProt P10826); experiment: Retinoid binding assay, RARβ; set-up: The DEF domains of RAR's and the full length RXR's, expressed in E.coli; made in house; host or cells: E. coli; details: read-out: Binding Affinity IC50 RAR β
T3 sequence (P10826 183-417 limits assumed): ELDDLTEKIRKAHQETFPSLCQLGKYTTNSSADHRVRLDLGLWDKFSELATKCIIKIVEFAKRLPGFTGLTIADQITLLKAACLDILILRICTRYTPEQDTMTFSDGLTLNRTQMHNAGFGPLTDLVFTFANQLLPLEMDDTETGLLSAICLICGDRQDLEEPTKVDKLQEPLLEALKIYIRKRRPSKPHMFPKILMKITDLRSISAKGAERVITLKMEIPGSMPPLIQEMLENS
From the text: as §1

RARβ [4] = target: T3, RARβ; experiment: Retinoid activation assay, RARβ (COS-1 cells, SeAP reporter); assay type: cell-based; details: read-out: Activation EC50 RAR β
Experimental: (§2) Chimeric RAR cDNAs are used for transfection which contain the DNA binding region of the estrogen receptor. As reporter system, the SeAp (secreted alkaline phosphatase) gene under control of the vitellogenin estrogen response element fused to the herpes simplex thymidinkinase promoter (vit-TK-SeAP) is used. The galactosidase expression vector pCH110 serves to correct for variation in transfection efficiency. […] At the end of the incubation, the cell supernatants are assayed for SeAP activity. Results are given as EC50 (nM), the concentration leading to half-maximal activation.

RARγ [5] = target: T4, RARγ (Homo sapiens, UniProt P13631); experiment: Retinoid activation assay, RARγ (COS-1 cells, SeAP reporter); assay type: cell-based; details: read-out: Activation EC50 RAR γ
T4 sequence (P13631 185-454 limits assumed): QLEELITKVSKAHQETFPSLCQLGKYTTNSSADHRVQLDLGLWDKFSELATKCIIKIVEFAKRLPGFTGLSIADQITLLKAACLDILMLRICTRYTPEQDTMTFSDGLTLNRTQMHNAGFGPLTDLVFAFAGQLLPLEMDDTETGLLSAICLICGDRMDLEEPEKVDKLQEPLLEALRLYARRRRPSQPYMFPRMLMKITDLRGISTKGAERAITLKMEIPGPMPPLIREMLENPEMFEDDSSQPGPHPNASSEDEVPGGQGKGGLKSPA
Experimental: as §2

RARα [6] = target: T2, RARα; experiment: Retinoid activation assay, RARα (COS-1 cells, SeAP reporter); assay type: cell-based; details: read-out: Activation EC50 RAR α
Experimental: as §2

RXRβ = target: T5, RXRβ (Homo sapiens, UniProt P28702); experiment: Retinoid activation assay, RXRβ (Schneider SL-3 cells, luciferase reporter); assay type: cell-based; details: read-out: Activation EC50 RXR β
T5 construct: Full length RXR cDNA is used for transfection; expressed in transfected cells; host or cells: Schneider SL-3 cells (Drosophila)
T5 sequence (P28702 1-533): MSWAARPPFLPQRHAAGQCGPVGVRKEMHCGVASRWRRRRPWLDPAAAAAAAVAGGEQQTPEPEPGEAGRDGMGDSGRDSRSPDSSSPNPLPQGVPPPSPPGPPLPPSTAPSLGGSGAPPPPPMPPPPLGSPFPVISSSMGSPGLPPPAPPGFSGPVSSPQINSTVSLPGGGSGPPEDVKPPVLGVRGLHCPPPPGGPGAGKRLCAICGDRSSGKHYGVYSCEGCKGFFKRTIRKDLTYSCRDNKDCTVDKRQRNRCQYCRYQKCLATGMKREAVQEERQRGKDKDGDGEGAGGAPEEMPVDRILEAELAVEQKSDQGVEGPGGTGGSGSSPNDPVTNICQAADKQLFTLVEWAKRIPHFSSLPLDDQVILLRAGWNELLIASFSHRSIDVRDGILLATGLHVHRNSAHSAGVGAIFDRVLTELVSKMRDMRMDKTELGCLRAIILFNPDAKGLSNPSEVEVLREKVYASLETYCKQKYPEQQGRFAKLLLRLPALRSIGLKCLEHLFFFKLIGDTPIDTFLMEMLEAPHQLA
Experimental: Full length RXR cDNA is used for transfection. As reporter system, the luciferase gene is used in a construct with three copies of a RXR response element from rat CRBP gene, (formerly RARE from betaRAR gene), fused to alcoholdehydrogenase gene promoter in the plasmid pGL2-basic. Schneider SL-3 cells from Drosophila are transiently transfected 3-4 h before the experiment by the Ca-phosphate-DNA coprecipitation method. […] At the end of the incubation, the cell supernatants are assayed for luciferase activity. Results are given as EC50 (nM), the concentration leading to half-maximal activation.

Row | Compound | IC50 (RARγ [1]) [nM] | IC50 (RARα [2]) [nM] | IC50 (RARβ [3]) [nM] | EC50 (RARβ [4]) [nM] | EC50 (RARγ [5]) [nM] | EC50 (RARα [6]) [nM] | EC50 (RXRβ) [nM]
1 | CC(/C=C/[C@@H]1C[C@@H]1c1ccc2c(c1)C(C)(C)CCC2(C)C)=C\C(=O)O (racemic) [Compound 4, (2E,4E)-3-methyl-5-[(1RS,2RS)-2-(5,5,8,8-tetramethyl-5,6,7,8-tetrahydro-naphthalen-2-yl)-cyclopropyl]-penta-2,4-dienoic acid] | 7500 | > 10000 | > 10000 | 1200 | 1000 | – | –
2 | CCCCOc1c([C@@H]2C[C@@H]2/C=C/C(C)=C/C(=O)O)cc(C(C)(C)C)cc1C(C)(C)C (racemic) [Compound 16, (2E,4E)-(1RS,2RS)-5-[2-(3,5-Di-tert-butyl-2-butoxy-phenyl)-cyclopropyl]-3-methyl-penta-2,4-dienoic acid] | > 10000 | > 10000 | > 10000 | – | – | – | –
3 | CC(/C=C/C1=C(c2ccc3c(c2)C(C)(C)CCC3(C)C)CCCC1)=C\C(=O)O [Compound 6, (2E,4E)-3-Methyl-5-[2-(5,5,8,8-tetramethyl-5,6,7,8-tetrahydro-naphthalen-2-yl)-cyclohex-1-enyl]-penta-2,4-dienoic acid] | > 10000 | > 10000 | > 10000 | – | – | – | 1850
4 | CC1=C(/C=C/C2=C(/C=C/C(C)=C/C(=O)O)CCCCC2)C(C)(C)CCC1 [Compound 1, (2E,4E)-3-methyl-5-[2-[(E)-2-(2,6,6-trimethyl-1-cyclohexen-1-yl)ethenyl]-1-cyclohepten-1-yl]-2,4-pentadienoic acid] | > 10000 | > 10000 | > 10000 | – | – | – | –
5 | CC1=C(/C=C/c2sccc2/C=C/C(C)=C/C(=O)O)C(C)(C)CCC1 [Compound 5, (2E,4E)-3-Methyl-5-[2-[(E)-2-(2,6,6-trimethyl-1-cyclohexen-1-yl)ethenyl]-3-thienyl]-2,4-pentadienoic acid] | 5300 | 1600 | 1000 | 85 | 170 | 170 | 50
6 | CC(/C=C/c1ccccc1-c1ccc2c(c1)C(C)(C)CCC2(C)C)=C\C(=O)O [Compound 7, (2E,4E)-3-methyl-5-[2-(5,5,8,8-tetramethyl-5,6,7,8-tetrahydro-naphthalen-2-yl)-phenyl]-penta-2,4-dienoic acid] | 6300 | > 10000 | > 10000 | – | – | – | 330
7 | CCCCOc1c(\C(C)=C/C=C/C(C)=C/C(=O)O)cc(C(C)(C)C)cc1C(C)(C)C [Compound 15, (2E,4E,6Z)-7-[2-butoxy-3,5-bis(1,1-dimethylethyl)phenyl]-3-methyl-2,4,6-octatrienoic acid] | 2700 | 4200 | > 10000 | – | – | – | –
8 | CC(/C=C/c1sccc1-c1ccc2c(c1)C(C)(C)CCC2(C)C)=C\C(=O)O [Compound 9] | 3600 | 3400 | 3800 | 360 | 890 | 2300 | –

Second part, the compound after the results:

Row | IC50 (RARγ [1]) [nM] | IC50 (RARα [2]) [nM] | IC50 (RARβ [3]) [nM] | EC50 (RARβ [4]) [nM] | EC50 (RARγ [5]) [nM] | EC50 (RARα [6]) [nM] | EC50 (RXRβ) [nM] | Compound
9 | > 10000 | > 10000 | > 10000 | – | – | – | – | CCOc1c(\C(C)=C/C=C/C(C)=C/C(=O)O)cc(C(C)(C)C)cc1C(C)(C)C [Compound 21, (2E,4E,6Z)-7-[3,5-Bis(1,1-dimethylethyl)-2-ethoxyphenyl]-3-methyl-2,4,6-octatrienoic acid/ethyl ester]
10 | – | – | – | 90 | 150 | 150 | 270 | CC1=C(/C=C/C2=C(/C=C/C(C)=C/C(=O)O)CCC2)C(C)(C)CCC1 [Compound 14, (2E,4E)-3-Methyl-5-[2-[(E)-2-(2,6,6-trimethyl-1-cyclohexen-1-yl)ethenyl]-1-cyclopenten-1-yl]-2,4-pentadienoic acid]
11 | 33 | 46 | 20 | 9.9 | 16.1 | 54 | ≥ 10000 | CCC1(CC)CCC(C)(C)c2cc(\C(C)=C/C=C/C(C)=C/C(=O)O)ccc21 [Compound 24, (2E,4E,6Z)-7-(5,5-Diethyl-8,8-dimethyl-5,6,7,8-tetrahydro-naphthalen-2-yl)-3-methyl-octa-2,4,6-trienoic acid]
12 | > 10000 | > 10000 | > 10000 | – | – | – | ≥ 10000 | CC1=C(C#CC2=C(/C=C/C(C)=C/C(=O)O)CCCCC2)C(C)(C)CCC1 [Compound 18]
13 | 5300 | 6500 | – | – | – | – | 77 | C/C(=C/C=C/C(C)=C/C(=O)O)c1cc2c(cc1C)C(C)(C)CCCC2 [Compound 13, (2E,4E,6Z)-3-Methyl-7-(3,5,5,-trimethyl-6,7,8,9-tetrahydro-5H-benzocyclohepten-2-yl)-octa-2,4,6-trienoic acid]
14 | 6600 | 3500 | 2500 | 84 | 200 | 370 | 60 | CC(/C=C/C1=C(c2ccc3c(c2)C(C)(C)CCC3(C)C)CCC1)=C\C(=O)O [Compound 12, (2E,4E)-3-Methyl-5-[2-(5,5,8,8-tetramethyl-5,6,7,8-tetrahydro-naphthalen-2-yl)-cyclopent-1-enyl]-penta-2,4-dienoic acid]
15 | > 10000 | > 10000 | > 10000 | – | – | – | – | CCOc1c([C@@H]2C[C@@H]2/C=C/C(C)=C/C(=O)O)cc(C(C)(C)C)cc1C(C)(C)C (racemic) [Compound 17, (2E,4E)-(1RS,2RS)-5-[2-(3,5-Di-tert-butyl-2-ethoxy-phenyl)-cyclopropyl]-3-methyl-penta-2,4-dienoic acid]
